Measured values as given in patent US7687071B1, “Nanoparticulate core shell systems and the use thereof in pharmaceutical and cosmetic preparation” (BASF Aktiengesellschaft, priority 1998, dated 2010).

Assay: Wide-angle X-ray scattering
Assay type: physicochemical
Settings: FIG. 1
Excerpt: The scattering plots for active ingredient (top) and dry powder from 1b) (bottom) are depicted in FIG. 1. The ritonavir starting material is crystalline, as proven by the X-ray diagram which is characterized by a number of sharp interferences. […] This also applies to the ancillary substances lactose and ascorbyl palmitate which are otherwise crystalline.

## CC(C)c1nc(CN(C)C(=O)N[C@H](C(=O)N[C@@H](Cc2ccccc2)C[C@H](O)[C@H](Cc2ccccc2)NC(=O)OCc2cncs2)C(C)C)cs1 [ritonavir]
  solid state by X-ray scattering plot: crystalline
